In PubChem BioAssay (NCI):
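Interpolation was linear, between the two tested concentrations surrounding the appropriate level; five concentrations were tested over 48 hours in 96-well plates. The concentration for full growth arrest is given as TGI.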

What follows are compounds tested on KM20L2 colon (assay: inhibition of tumour cell growth, NCI panel, 48 h).

Compound | TGI
COc1cc(OC)c2c(=O)cc(-c3ccc(OC)c(OC)c3OC)oc2c1 | > 100 µM
O=C(O)C(Cl)(Cl)Cl | > 100 µM

The compounds below were run on SNB-75 CNS (assay: inhibition of tumour cell growth, NCI panel, 48 h).

Compound | TGI
C=CCCCCC1CCC2CCC(CCCCC=C)N12 (configuration not stated) | 43.1 µM
COc1cc(OC)c2c(=O)cc(-c3ccc(OC)c(OC)c3OC)oc2c1 | 45.3 µM
CCCCCCCCCCCCCCCC(=O)OCCOCCOCCOCc1ccccc1 | > 100 µM
O=C(O)C(Cl)(Cl)Cl | > 100 µM

Each compound was assayed on DMS 114 small cell lung (assay: inhibition of tumour cell growth, NCI panel, 48 h).

Compound | TGI
C=CCCCCC1CCC2CCC(CCCCC=C)N12 (configuration not stated) | 31.3 µM
COc1cc(OC)c2c(=O)cc(-c3ccc(OC)c(OC)c3OC)oc2c1 | > 100 µM
O=C(O)C(Cl)(Cl)Cl | > 100 µM

The compounds below were run on SF-539 CNS (assay: inhibition of tumour cell growth, NCI panel, 48 h).

Compound | TGI
C=CCCCCC1CCC2CCC(CCCCC=C)N12 (configuration not stated) | 30.6 µM
COc1cc(OC)c2c(=O)cc(-c3ccc(OC)c(OC)c3OC)oc2c1 | > 100 µM
CCCCCCCCCCCCCCCC(=O)OCCOCCOCCOCc1ccccc1 | > 100 µM
O=C(O)C(Cl)(Cl)Cl | > 100 µM

Each compound was assayed on NCI-H460 lung (assay: inhibition of tumour cell growth, NCI panel, 48 h).

Compound | TGI
C=CCCCCC1CCC2CCC(CCCCC=C)N12 (configuration not stated) | 26.2 µM
CCCCCCCCCCCCCCCC(=O)OCCOCCOCCOCc1ccccc1 | > 100 µM
O=C(O)C(Cl)(Cl)Cl | > 100 µM

The compounds below were run on LXFL 529 NSCLC (assay: inhibition of tumour cell growth, NCI panel, 48 h).

Compound | TGI
C=CCCCCC1CCC2CCC(CCCCC=C)N12 (configuration not stated) | 26.9 µM
COc1cc(OC)c2c(=O)cc(-c3ccc(OC)c(OC)c3OC)oc2c1 | > 100 µM
O=C(O)C(Cl)(Cl)Cl | > 100 µM

What follows are compounds tested on HL-60(TB) leukemia (assay: inhibition of tumour cell growth, NCI panel, 48 h).

Compound | TGI
C=CCCCCC1CCC2CCC(CCCCC=C)N12 (configuration not stated) | 36.5 µM
COc1cc(OC)c2c(=O)cc(-c3ccc(OC)c(OC)c3OC)oc2c1 | > 100 µM
O=C(O)C(Cl)(Cl)Cl | > 100 µM

What follows are compounds tested on TK-10 renal (assay: inhibition of tumour cell growth, NCI panel, 48 h).

Compound | TGI
C=CCCCCC1CCC2CCC(CCCCC=C)N12 (configuration not stated) | 34.8 µM
COc1cc(OC)c2c(=O)cc(-c3ccc(OC)c(OC)c3OC)oc2c1 | > 100 µM
CCCCCCCCCCCCCCCC(=O)OCCOCCOCCOCc1ccccc1 | > 100 µM
O=C(O)C(Cl)(Cl)Cl | > 100 µM

What follows are compounds tested on SW-620 colon (assay: inhibition of tumour cell growth, NCI panel, 48 h).

Compound | TGI
C=CCCCCC1CCC2CCC(CCCCC=C)N12 (configuration not stated) | 32.9 µM
COc1cc(OC)c2c(=O)cc(-c3ccc(OC)c(OC)c3OC)oc2c1 | > 100 µM
CCCCCCCCCCCCCCCC(=O)OCCOCCOCCOCc1ccccc1 | > 100 µM
O=C(O)C(Cl)(Cl)Cl | > 100 µM

Each compound was assayed on SF-268 CNS (assay: inhibition of tumour cell growth, NCI panel, 48 h).

Compound | TGI
C=CCCCCC1CCC2CCC(CCCCC=C)N12 (configuration not stated) | 29.8 µM
COc1cc(OC)c2c(=O)cc(-c3ccc(OC)c(OC)c3OC)oc2c1 | > 100 µM
CCCCCCCCCCCCCCCC(=O)OCCOCCOCCOCc1ccccc1 | > 100 µM
O=C(O)C(Cl)(Cl)Cl | > 100 µM

These compounds were tested on HCT-15 colon (assay: inhibition of tumour cell growth, NCI panel, 48 h).

Compound | TGI
C=CCCCCC1CCC2CCC(CCCCC=C)N12 (configuration not stated) | 19.4 µM
COc1cc(OC)c2c(=O)cc(-c3ccc(OC)c(OC)c3OC)oc2c1 | > 100 µM
O=C(O)C(Cl)(Cl)Cl | > 100 µM

The compounds below were run on DLD-1 colon (assay: inhibition of tumour cell growth, NCI panel, 48 h).

Compound | TGI
COc1cc(OC)c2c(=O)cc(-c3ccc(OC)c(OC)c3OC)oc2c1 | > 100 µM
CCCCCCCCCCCCCCCC(=O)OCCOCCOCCOCc1ccccc1 | > 100 µM
O=C(O)C(Cl)(Cl)Cl | > 100 µM

What follows are compounds tested on M19-MEL melanoma (assay: inhibition of tumour cell growth, NCI panel, 48 h).

Compound | TGI
C=CCCCCC1CCC2CCC(CCCCC=C)N12 (configuration not stated) | 37.3 µM
COc1cc(OC)c2c(=O)cc(-c3ccc(OC)c(OC)c3OC)oc2c1 | > 100 µM
CCCCCCCCCCCCCCCC(=O)OCCOCCOCCOCc1ccccc1 | > 100 µM
O=C(O)C(Cl)(Cl)Cl | > 100 µM

The compounds below were run on SF-295 CNS (assay: inhibition of tumour cell growth, NCI panel, 48 h).

Compound | TGI
C=CCCCCC1CCC2CCC(CCCCC=C)N12 (configuration not stated) | 26.4 µM
COc1cc(OC)c2c(=O)cc(-c3ccc(OC)c(OC)c3OC)oc2c1 | > 100 µM
CCCCCCCCCCCCCCCC(=O)OCCOCCOCCOCc1ccccc1 | 98.4 µM
